Tested on: female Sprague-Dawley mature and young adult rats
Experiment: Ex vivo peripheral quantitative computed tomography (pQCT) of right femur (metaphysis, diaphysis, length)
Format: in vivo, rat
Details: Mature Adults; for pQCT femur (diaphysis) CSMI / pQCT femur (diaphysis) Cortical Area / pQCT femur (diaphysis) Cortical BMC / pQCT femur (diaphysis) Cortical BMD / pQCT femur (diaphysis) Cortical Thickness / pQCT femur (diaphysis) Endosteal Circumference / pQCT femur (diaphysis) Periosteal Circumference / pQCT femur (diaphysis) Total Area / pQCT femur (diaphysis) Total BMC / pQCT femur (diaphysis) Total BMD / pQCT femur Length / pQCT femur metaphysis C/SC (Cortical/Subcortical) BMC / pQCT femur metaphysis C/SC (Cortical/Subcortical) BMD / pQCT femur metaphysis Total Area / pQCT femur metaphysis Total BMC / pQCT femur metaphysis Total BMD / pQCT femur metaphysis Trabecular BMC / pQCT femur metaphysis Trabecular BMD: mean
Procedure: The following were evaluated: clinical signs (at least weekly), body weight (weekly), food consumption (weekly), hormones (Days 13 and 27), serum and urinary biochemical markers of bone turnover (Days 13 and 27), serum chemistry (at necropsy), bone densitometry by dual energy X-ray absorptiometry (DXA) and peripheral quantitative computed tomography (pQCT) (Week 2 and 4, as well as ex vivo), macroscopic observations at necropsy, organ weights, histopathology, biomechanical strength testing and femoral length measurements.
3.2 Ex Vivo Peripheral Quantitative Computed Tomography (pQCT)
Peripheral QCT scans were performed ex vivo using an XCT Research SA or SA+ bone scanner with software version 5.50D. Scans were obtained for the right femur, L3 and L4 lumbar vertebra for all animals euthanized at the end of the treatment period as well as two found dead animals. These two animals were scanned twice due to technical oversight, however only the first scans obtained were reported and the second scans were kept with the study file, this had no impact on the study as both scans were considered equivalent.
For the femurs, the scanned site was at the expected 3-point bending fracture site (diaphysis). This site was analyzed using Cortmode 2 for cortical bone measurements only (Table 5). An additional slice was obtained in the metaphysis. The metaphysis scan was not performed for the femur of three animals due to condyles detachment from the femur during trimming.
The femoral length was measured as part of the ex vivo pQCT scanning procedures and was reported for the right femur of all animals with the exception of 3 animas due to damaged femoral condyles.
All analyses were performed using the LOOP option of the analysis software. All other data generated as a result of the LOOP option were retained with the raw data but not reported. The most appropriate analysis mode for the femur and the lumbar vertebrae was used and documented in the raw data and the analysis details are presented in Table 6. All scan analysis data was retained and re-analyses documented.

`COc1ccc(Cc2c(OC3OC(CO)C(F)C(O)C3O)n[nH]c2C(F)(F)F)cc1` (stereo not drawn) [Example 5 of formula II] was tested, and the “pQCT femur (diaphysis) CSMI, percent difference from Vehicle Control” value (10 mg/kg/day) was 5.7%, the “pQCT femur (diaphysis) Cortical Area, percent difference from Vehicle Control” value (10 mg/kg/day) was 2.3% and the “pQCT femur (diaphysis) Cortical BMC, percent difference from Vehicle Control” value (10 mg/kg/day) was 2.7%. The “pQCT femur (diaphysis) Cortical BMD, percent difference from Vehicle Control” value (10 mg/kg/day) was 0.5%, the “pQCT femur (diaphysis) Cortical Thickness, percent difference from Vehicle Control” value (10 mg/kg/day) was 0.6% and the “pQCT femur (diaphysis) Endosteal Circumference, percent difference from Vehicle Control” value (10 mg/kg/day) was 2.3%. For the same molecule, the “pQCT femur (diaphysis) Periosteal Circumference, percent difference from Vehicle Control” value (10 mg/kg/day) was 1.0%, the “pQCT femur (diaphysis) Total Area, percent difference from Vehicle Control” value (10 mg/kg/day) was 3.1% and the “pQCT femur (diaphysis) Total BMC, percent difference from Vehicle Control” value (10 mg/kg/day) was 3.0%. The “pQCT femur (diaphysis) Total BMD, percent difference from Vehicle Control” value (10 mg/kg/day) was 0.1%, the “pQCT femur Length, percent difference from Vehicle Control” value (10 mg/kg/day) was −0.4% and the “pQCT femur metaphysis C/SC BMC, percent difference from Vehicle Control” value (10 mg/kg/day) was 6.2%. For the same molecule, the “pQCT femur metaphysis C/SC BMD, percent difference from Vehicle Control” value (10 mg/kg/day) was 2.0%, the “pQCT femur metaphysis Total Area, percent difference from Vehicle Control” value (10 mg/kg/day) was 4.4% and the “pQCT femur metaphysis Total BMC, percent difference from Vehicle Control” value (10 mg/kg/day) was 7.8%. For the same molecule, the “pQCT femur metaphysis Total BMD, percent difference from Vehicle Control” value (10 mg/kg/day) was 3.5%, the “pQCT femur metaphysis Trabecular BMC, percent difference from Vehicle Control” value (10 mg/kg/day) was 14.7% and the “pQCT femur metaphysis Trabecular BMD, percent difference from Vehicle Control” value (10 mg/kg/day) was 9.9%. For the same molecule, the “pQCT femur (diaphysis) CSMI” value (10 mg/kg/day) was 5.0 mm^4, the “pQCT femur (diaphysis) Cortical Area” value (10 mg/kg/day) was 6.5 mm^2 and the “pQCT femur (diaphysis) Cortical BMC” value (10 mg/kg/day) was 8.5 mg/mm. For the same molecule, the “pQCT femur (diaphysis) Cortical BMD” value (10 mg/kg/day) was 1312.6 mg/cm^3, the “pQCT femur (diaphysis) Cortical Thickness” value (10 mg/kg/day) was 0.76 mm and the “pQCT femur (diaphysis) Endosteal Circumference” value (10 mg/kg/day) was 6.2 mm. The “pQCT femur (diaphysis) Periosteal Circumference” value (10 mg/kg/day) was 10.8 mm, the “pQCT femur (diaphysis) Total Area” value (10 mg/kg/day) was 9.6 mm^2 and the “pQCT femur (diaphysis) Total BMC” value (10 mg/kg/day) was 9.1 mg/mm. For the same molecule, the “pQCT femur (diaphysis) Total BMD” value (10 mg/kg/day) was 955.6 mg/cm^3, the “pQCT femur Length” value (10 mg/kg/day) was 37.0 mm and the “pQCT femur metaphysis C/SC (Cortical/Subcortical) BMC” value (10 mg/kg/day) was 10.1 mg/mm. For the same molecule, the “pQCT femur metaphysis C/SC (Cortical/Subcortical) BMD” value (10 mg/kg/day) was 1054.0 mg/cm^3, the “pQCT femur metaphysis Total Area” value (10 mg/kg/day) was 16.0 mm^2 and the “pQCT femur metaphysis Total BMC” value (10 mg/kg/day) was 12.6 mg/mm. The “pQCT femur metaphysis Total BMD” value (10 mg/kg/day) was 791.1 mg/cm^3, the “pQCT femur metaphysis Trabecular BMC” value (10 mg/kg/day) was 2.5 mg/mm and the “pQCT femur metaphysis Trabecular BMD” value (10 mg/kg/day) was 396.9 mg/cm^3. For the same molecule, the “pQCT femur (diaphysis) CSMI, percent difference from Vehicle Control” value (50 mg/kg/day) was −3.0%, the “pQCT femur (diaphysis) Cortical Area, percent difference from Vehicle Control” value (50 mg/kg/day) was 0.2% and the “pQCT femur (diaphysis) Cortical BMC, percent difference from Vehicle Control” value (50 mg/kg/day) was 1.2%. For the same molecule, the “pQCT femur (diaphysis) Cortical BMD, percent difference from Vehicle Control” value (50 mg/kg/day) was 1.0%, the “pQCT femur (diaphysis) Cortical Thickness, percent difference from Vehicle Control” value (50 mg/kg/day) was 3.5% and the “pQCT femur (diaphysis) Endosteal Circumference, percent difference from Vehicle Control” value (50 mg/kg/day) was −5.6%. For the same molecule, the “pQCT femur (diaphysis) Periosteal Circumference, percent difference from Vehicle Control” value (50 mg/kg/day) was −2.1%, the “pQCT femur (diaphysis) Total Area, percent difference from Vehicle Control” value (50 mg/kg/day) was −3.4% and the “pQCT femur (diaphysis) Total BMC, percent difference from Vehicle Control” value (50 mg/kg/day) was 0.0%. For the same molecule, the “pQCT femur (diaphysis) Total BMD, percent difference from Vehicle Control” value (50 mg/kg/day) was 3.5%, the “pQCT femur Length, percent difference from Vehicle Control” value (50 mg/kg/day) was −0.4% and the “pQCT femur metaphysis C/SC BMC, percent difference from Vehicle Control” value (50 mg/kg/day) was 4.0%. For the same molecule, the “pQCT femur metaphysis C/SC BMD, percent difference from Vehicle Control” value (50 mg/kg/day) was 7.0%, the “pQCT femur metaphysis Total Area, percent difference from Vehicle Control” value (50 mg/kg/day) was −2.7% and the “pQCT femur metaphysis Total BMC, percent difference from Vehicle Control” value (50 mg/kg/day) was 5.1%. For the same molecule, the “pQCT femur metaphysis Total BMD, percent difference from Vehicle Control” value (50 mg/kg/day) was 8.0%, the “pQCT femur metaphysis Trabecular BMC, percent difference from Vehicle Control” value (50 mg/kg/day) was 9.7% and the “pQCT femur metaphysis Trabecular BMD, percent difference from Vehicle Control” value (50 mg/kg/day) was 12.3%. The “pQCT femur (diaphysis) CSMI” value (50 mg/kg/day) was 4.6 mm^4, the “pQCT femur (diaphysis) Cortical Area” value (50 mg/kg/day) was 6.4 mm^2 and the “pQCT femur (diaphysis) Cortical BMC” value (50 mg/kg/day) was 8.4 mg/mm. For the same molecule, the “pQCT femur (diaphysis) Cortical BMD” value (50 mg/kg/day) was 1319.4 mg/cm^3, the “pQCT femur (diaphysis) Cortical Thickness” value (50 mg/kg/day) was 0.78 mm and the “pQCT femur (diaphysis) Endosteal Circumference” value (50 mg/kg/day) was 5.7 mm. The “pQCT femur (diaphysis) Periosteal Circumference” value (50 mg/kg/day) was 10.4 mm, the “pQCT femur (diaphysis) Total Area” value (50 mg/kg/day) was 9.0 mm^2 and the “pQCT femur (diaphysis) Total BMC” value (50 mg/kg/day) was 8.8 mg/mm. For the same molecule, the “pQCT femur (diaphysis) Total BMD” value (50 mg/kg/day) was 988.0 mg/cm^3, the “pQCT femur Length” value (50 mg/kg/day) was 37.0 mm and the “pQCT femur metaphysis C/SC (Cortical/Subcortical) BMC” value (50 mg/kg/day) was 9.9 mg/mm. For the same molecule, the “pQCT femur metaphysis C/SC (Cortical/Subcortical) BMD” value (50 mg/kg/day) was 1105.5 mg/cm^3, the “pQCT femur metaphysis Total Area” value (50 mg/kg/day) was 14.9 mm^2 and the “pQCT femur metaphysis Total BMC” value (50 mg/kg/day) was 12.3 mg/mm. For the same molecule, the “pQCT femur metaphysis Total BMD” value (50 mg/kg/day) was 825.3 mg/cm^3, the “pQCT femur metaphysis Trabecular BMC” value (50 mg/kg/day) was 2.4 mg/mm and the “pQCT femur metaphysis Trabecular BMD” value (50 mg/kg/day) was 405.3 mg/cm^3.

— patent US20120270819A1, “USE OF COMPOUNDS WITH SGLT-1/SGLT-2 INHIBITOR ACTIVITY FOR PRODUCING MEDICAMENTS FOR TREATMENT OF BONE DISEASE” (SANOFI, priority 2009, published 2012)
